Literature values, collected in patent US20250333423A1, “SMALL MOLECULE MODULATORS OF GP130 SIGNALING PATHWAYS” (CarthroniX, Inc., priority 2022, published 2025).

Experiments:
gp130 = biological target: T1, gp130 (Homo sapiens, UniProt P40189)
T1 sequence (P40189 23-918): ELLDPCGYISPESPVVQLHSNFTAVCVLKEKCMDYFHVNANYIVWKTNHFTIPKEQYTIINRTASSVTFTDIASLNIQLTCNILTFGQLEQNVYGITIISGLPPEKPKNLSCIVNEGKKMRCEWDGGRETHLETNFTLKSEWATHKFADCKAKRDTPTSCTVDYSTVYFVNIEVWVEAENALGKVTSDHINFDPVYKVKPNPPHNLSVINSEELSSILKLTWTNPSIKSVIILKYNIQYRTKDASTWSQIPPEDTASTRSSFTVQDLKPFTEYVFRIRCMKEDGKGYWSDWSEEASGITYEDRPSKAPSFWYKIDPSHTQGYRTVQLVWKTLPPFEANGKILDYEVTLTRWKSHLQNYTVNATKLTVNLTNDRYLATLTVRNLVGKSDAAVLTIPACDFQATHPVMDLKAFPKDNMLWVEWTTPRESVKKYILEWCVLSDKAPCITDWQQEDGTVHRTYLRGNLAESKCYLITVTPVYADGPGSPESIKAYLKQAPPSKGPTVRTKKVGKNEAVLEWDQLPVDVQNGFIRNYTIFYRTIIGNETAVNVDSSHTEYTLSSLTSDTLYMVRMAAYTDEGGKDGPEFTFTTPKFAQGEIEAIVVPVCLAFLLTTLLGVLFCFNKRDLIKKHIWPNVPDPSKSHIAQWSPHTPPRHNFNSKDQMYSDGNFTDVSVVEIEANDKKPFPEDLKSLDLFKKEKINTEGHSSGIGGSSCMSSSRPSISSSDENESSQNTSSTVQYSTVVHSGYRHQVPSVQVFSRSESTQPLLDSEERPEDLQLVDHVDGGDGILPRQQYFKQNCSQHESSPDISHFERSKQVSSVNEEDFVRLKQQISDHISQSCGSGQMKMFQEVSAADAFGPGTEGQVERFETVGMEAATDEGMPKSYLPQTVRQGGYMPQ

SMILES: Brc1ccc(Nc2nc(-c3ccccc3)cs2)cc1 [RCGD 423]
- interaction with gp130 (gp130; in vitro): interacts with the extracellular region of gp130
- formation of gp130 homodimers (gp130; ligand-independent): promotes the formation of active, ligand-independent gp130 homodimers
- prevention of cartilage degeneration (rat model of OA): remarkable ability to prevent cartilage degeneration
